Source: US12054479B1, “Multicyclic compounds” (SLAP Pharmaceuticals LLC, priority 2022, dated 2024)

Key:
PARP1 [1] = molecular target: T1, PARP1 (Homo sapiens, UniProt P09874); assay: cell-based assay (Table 1); proliferation assay (PARP inhibitors) in DLD-1 wt and DLD-1 BRCA2, CTG detection; set-up: endogenous in cells; host or cells: DLD-1 wt and DLD-1 BRCA2 (-/-); settings: Table 1, results of the cell-based assay; cell line (DLD-1 wt or DLD-1 BRCA2) not given
Method: Proliferation Assay (PARP Inhibitors) in DLD-1 wt and DLD-1 BRCA2
DLD-1-wt and DLD-1 mutant cells are cultured in RPMI 1640+10% FBS+1% PS. The cells are harvested into culture media for 2-3 days. The cells are diluted into culture media (density 2˜3×10^6) and 40 uL of cell suspension (50 cells/well for DLD-1 wt and 50 cells/well for DLD-1 BRCA (−/−). The plates are covered and spun at rt at 1000 rpm, for 1 minute and then transferred. The plates are placed into 37° C. 5% CO2 incubator overnight. Test compounds are dissolved at 10 mM DMSO stock solution and then 40 uL of stock solution is transferred to a 384 PP-plate. A 10-point dilution is carried out by transferring 10 uL compound into 30 μL DMSO by using TECAN (EVO200) liquid handler. The plates are spun at rt at 1000 rpm for 1 minute and then shaken on a plate shaker for 2 minutes. Forty nL of diluted compound is transferred into the cell plate by using a liquid handler. After 7 days of incubation, a CTG detection assay is performed. The CTG detection assay is carried out by removing the plates from the incubators and then equilibrated at rt for 15 minutes. The CellTiter Glo reagents are thawed and equilibrated at rt. CellTiter-Glo reagent (30 μL) is added into each well, and the plates are placed at rt for 30 minutes followed by reading on EnVision. The inhibition activity is calculated using the formula: % Inhibition=100×(LumHC−LumSample)/(LumHC−LumLC).
In Table 1, ‘A’ indicates an IC50 of <0.1 μM, ‘B’ indicates an IC50 of ≥0.1 μM and <1.0 μM, and ‘C’ indicates an IC50 of ≥1.0 μM. As shown by the results in Table 1, compounds of Formula (I), including pharmaceutically acceptable salts thereof, are effective PARP1 inhibitors.

PARP1 [2] = molecular target: T1, PARP1; assay: biochemical assay (Table 2); FP binding assay (PARP1, PARP2) with PARPi-FL; settings: Table 2, results of the biochemical assay
Method: FP Binding Assay (PARP1, PARP2)
The PARP1 and PARP 2 protein and the PARPi-FL were purchased from BPS Bioscience. The assay buffer was 50 mM Tris pH 8.0, 0.001% Triton X-100, 10 mM MgCl2, 150 mM NaCl. The compounds were diluted into top point concentration in 384PP-plate and transferred serially into an Optiplate-384F plate. Compound (20 nL) or DMSO was added to assay plate and then 10 uL of 40 nM PARP1 or PARP2 (diluted using assay buffer) was added. The assay plate was centrifuged at 1000 rpm for 1 min and then incubated for 30 min at rt. 6 nM PARPi-FL (diluted using assay buffer) (10 uL) was added to the plate (final concentration of PARP1 and PARP2 was 20 nM, and PARPi-FL was 3 nM). After centrifuging at 1000 rpm for 1 min, the assay plate was incubated at rt 4 h. The plates were read using Envision with Excitation filter. The data analysis was done by calculating the inhibition rate using mP value using the following equation. Inhibition (%)=(1−mpC−mpL)/mpH−mpL×100%.
As shown by the results in Table 2, compounds of Formula (I), including pharmaceutically acceptable salts thereof, are effective PARP1 inhibitors.

T1 sequence (P09874 whole entry): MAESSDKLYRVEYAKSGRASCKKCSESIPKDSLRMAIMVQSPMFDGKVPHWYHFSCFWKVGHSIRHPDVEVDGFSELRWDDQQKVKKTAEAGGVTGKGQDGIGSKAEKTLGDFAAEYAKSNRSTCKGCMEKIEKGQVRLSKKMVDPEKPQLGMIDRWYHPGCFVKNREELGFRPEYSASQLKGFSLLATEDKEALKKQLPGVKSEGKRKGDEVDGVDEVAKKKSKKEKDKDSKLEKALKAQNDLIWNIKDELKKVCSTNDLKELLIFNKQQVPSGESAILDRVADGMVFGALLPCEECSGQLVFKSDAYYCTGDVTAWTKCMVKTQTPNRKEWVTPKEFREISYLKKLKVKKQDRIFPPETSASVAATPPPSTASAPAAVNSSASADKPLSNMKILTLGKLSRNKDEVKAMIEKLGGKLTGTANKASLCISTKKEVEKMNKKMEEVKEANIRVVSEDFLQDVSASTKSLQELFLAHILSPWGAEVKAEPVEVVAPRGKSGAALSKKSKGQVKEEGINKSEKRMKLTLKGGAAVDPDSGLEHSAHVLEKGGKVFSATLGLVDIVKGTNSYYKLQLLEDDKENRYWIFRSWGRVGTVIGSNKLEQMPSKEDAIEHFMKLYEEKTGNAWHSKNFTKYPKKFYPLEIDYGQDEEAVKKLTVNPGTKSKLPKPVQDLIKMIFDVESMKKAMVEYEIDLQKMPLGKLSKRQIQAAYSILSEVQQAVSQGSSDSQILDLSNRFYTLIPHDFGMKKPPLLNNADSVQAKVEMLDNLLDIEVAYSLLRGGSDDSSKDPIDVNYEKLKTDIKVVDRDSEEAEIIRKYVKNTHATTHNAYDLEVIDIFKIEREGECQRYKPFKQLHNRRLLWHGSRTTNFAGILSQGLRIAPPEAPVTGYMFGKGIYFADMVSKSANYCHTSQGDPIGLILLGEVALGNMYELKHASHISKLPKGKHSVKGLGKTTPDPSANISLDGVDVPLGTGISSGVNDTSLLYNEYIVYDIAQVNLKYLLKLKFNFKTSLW

SMILES	IC50 (PARP1 [1]) [nM]	IC50 (PARP1 [2]) [nM]
CCC1Oc2ccc(CN3CCN(c4ccc(C(=O)NC)nc4F)CC3)c(F)c2NC1=O (single isomer, unassigned) [Compound 3aa]	< 100	–
CNC(=O)c1ccc(N2CCN(Cc3ccc4c(c3F)NC(=O)C3(CC3)O4)CC2)c(C)n1 [Compound A8]	< 100	< 5
CCC1Oc2ccc(CN3CCN(c4ccc(C(=O)NC)nc4F)CC3)c(F)c2NC1=O (single isomer, unassigned) [Compound 3ab]	< 100	–
